From patent US20150274777A1, “KETOAMIDE IMMUNOPROTEASOME INHIBITORS” (HOFFMANN-LA ROCHE INC., priority 2012, published 2015)

Experiments:
β5i = target: T1, β5i (Homo sapiens, UniProt P20618+P28062); test: Cell-Based Proteasome Activity/Selectivity Assay (Ramos cells), substrate (ANW)2Rh110; settings: highest concentration tested 20 μM, read-out: Ic50 ramos:ac-(anw)2-r110
T1 construct: protease activity associated with the proteasome complex in cultured cells; endogenous in cells; host or cells: Ramos cells
Excerpt: (§1) Cell-Based Proteasome Activity/Selectivity Assay
(§2) The Cell-Based Proteasome subunit activity/selectivity assay was a panel of 5 fluorogenic assays that independently measured the activity of β5c or β5i (chymotrypsin-like activity), β2c/2i (trypsin-like), and β1c or β1i (caspase-like) protease activity associated with the proteasome complex in cultured cells. Specifically, the following substrates were used for respective subunit activities: β1i: (PAL)2Rh110, β1c: (LLE)2 Rh110, β2c/2i: (KQL)2Rh110, β5c: (WLA)2Rh110, β5i: (ANW)2Rh110. The following procedure was followed:
(§3) Cell preparation: Plated 25 μl of Ramos cells (2×10^6/ml in DPBS) into half area plate (PerkinElmer Cat 6005569) to final 5×10^4 cells/well. Added 0.5 μl of 100×4-fold serial diluted test compounds or DMSO to each well. Highest concentration of compound tested was 20 μM, thus compound serial dilution started from […]. Incubated for 30 minutes at 37° C. Then equilibrated at room temperature for 15 minutes. Added 25 μl of 2× reaction mix consisting of 0.025% digitonin, 20 μM of each substrates and 0.5M sucrose in DPBS. Shaked for one minute @ 700 rpm. Incubated for 120 min at room temperature. Then read the plates with an Envision multilabel plate reader (PerkinElmer) with 500 nm excitation/519 nm emission.

β5c = target: T2, β5c (Homo sapiens, UniProt P20618+P28074); test: Cell-Based Proteasome Activity/Selectivity Assay (Ramos cells), substrate (WLA)2Rh110; settings: highest concentration tested 20 μM
T2 construct: protease activity associated with the proteasome complex in cultured cells; endogenous in cells; host or cells: Ramos cells
Excerpt: as §1, §2, §3

β2c/2i = test: Cell-Based Proteasome Activity/Selectivity Assay (Ramos cells), substrate (KQL)2Rh110; settings: highest concentration tested 20 μM
Excerpt: as §1, §2, §3

β1i = target: T3, β1i (Homo sapiens, UniProt P28065+P40306); test: Cell-Based Proteasome Activity/Selectivity Assay (Ramos cells), substrate (PAL)2Rh110; settings: highest concentration tested 20 μM
T3 construct: protease activity associated with the proteasome complex in cultured cells; endogenous in cells; host or cells: Ramos cells
Excerpt: as §1, §2, §3

β1c = target: T4, β1c (Homo sapiens, UniProt P28072+Q99436); test: Cell-Based Proteasome Activity/Selectivity Assay (Ramos cells), substrate (LLE)2 Rh110; settings: highest concentration tested 20 μM
T4 construct: protease activity associated with the proteasome complex in cultured cells; endogenous in cells; host or cells: Ramos cells
Excerpt: as §1, §2, §3

[1] = tested on: IP10 level in PBMCs stimulated with CpG Type A; test: PBMC IP-10 Assay; format: cell-based; settings: CpG Type A 2.5 μM
Experimental: PBMCs were isolated from whole blood as follows: Blood was collected in a sterile environment in heparinized tubes. Blood was diluted with an equal volume PBS/2% FCS and 30 ml of this mixture was added to ACCUSPIN tubes containing 15 ml Histopaque-1077 already centrifuged at 800 g for 30 seconds and warmed up at room temperature. The tubes were then centrifuged at 800 g for 20 minutes at room temperature with no brake. The mononuclear band, just above the polyethylene frit, was removed by Pasteur pipet. These mononuclear cells were washed three times with sterile PBS, counted, and resuspended in RPMI 1640 supplemented with 10% heat inactivated fetal calf serum, 10 mM HEPES, 1 mM sodium pyruvate, penicillin (50 U/ml), streptomycin (50 μg/ml) and glutamine (2 mM) to approximately 1.5×10^6/ml. Approximately 2×10^5 cells/well were plated in 96 well tissue culture plates (BD Falcon 353072), and preincubated 60 mi/37° C. with a titration of compounds, in a final concentration of 1% DMSO. Cells were then stimulated with CpG Type A (Invivogen, Cat #tlrl-2216; ODN 2216) at a final concentration of 2.5 μM. Cells were incubated overnight, and supernatants were removed. PBMC viability of cells remaining in the well was measured with ATPlite luminescence assay (Perkin-Elmer) per the manufacturer's instructions. Luminescence was measured on the Perkin-Elmer Envision, using the luminescence filter. IP10 level was measured with CXCL10/IP10 AlphaLISA kit (Perkin-Elmer) per the manufacturer's instructions, except halving all volumes. Fluorescence was measured on the Envision Multilabel plate reader, using the AlphaScreen standard settings.

SMILES | IC50 (β5i) [nM] | IC50 (β5c) [nM] | IC50 (β2c/2i) [nM] | IC50 (β1i) [nM] | IC50 (β1c) [nM] | EC50 [1] [nM]
C[C@H](NC(=O)c1ccnn1C)C(=O)N[C@@H](Cc1c[nH]c2ccccc12)C(=O)N[C@@H](Cc1ccccc1)C(=O)C(=O)NCc1ccccc1 [Example 30, 2-Methyl-2H-pyrazole-3-carboxylic acid {(S)-1-[(S)-1-((S)-1-benzyl-2-benzylcarbamoyl-2-oxo-ethylcarbamoyl)-2-(1H-indol-3-yl)-ethylcarbamoyl]-ethyl}-amide] | 47 | 2480 | 10000 | 569 | 12500 | 4090
CNC(=O)C(=O)[C@H](Cc1ccccc1)NC(=O)[C@H](Cc1c[nH]c2ccccc12)NC(=O)[C@H](C)NC(=O)OCc1ccccc1 [Example 31, {(S)-1-[(S)-1-((S)-1-Benzyl-2-methylcarbamoyl-2-oxo-ethylcarbamoyl)-2-(1H-indol-3-yl)-ethylcarbamoyl]-ethyl}-carbamic acid benzyl ester] | 34 | 738 | > 20000 | 244 | 13100 | 1180
C[C@H](NC(=O)OCc1ccccc1)C(=O)N[C@@H](Cc1c[nH]c2ccccc12)C(=O)N[C@@H](Cc1ccccc1)C(=O)C(=O)NC1CC1 [Example 32, {(S)-1-[(S)-1-((S)-1-Benzyl-2-cyclopropylcarbamoyl-2-oxo-ethylcarbamoyl)-2-(1H-indol-3-yl)-ethylcarbamoyl]-ethyl}-carbamic acid benzyl ester] | 11 | 365 | > 20000 | 266 | 12200 | 940
COCCNC(=O)C(=O)[C@H](Cc1ccccc1)NC(=O)[C@H](Cc1c[nH]c2ccccc12)NC(=O)[C@H](C)NC(=O)OCc1ccccc1 [Example 33, {(S)-1-[(S)-1-[(S)-1-Benzyl-2-(2-methoxy-ethylcarbamoyl)-2-oxo-ethylcarbamoyl]-2-(1H-indol-3-yl)-ethylcarbamoyl]-ethyl}-carbamic acid benzyl ester] | 14 | 597 | > 20000 | 205 | 17500 | 1380
C[C@H](NC(=O)OCc1ccccc1)C(=O)N[C@@H](Cc1c[nH]c2ccccc12)C(=O)N[C@@H](Cc1ccccc1)C(=O)C(=O)NCc1ccccn1 [Example 34, {(S)-1-[(S)-1-{(S)-1-Benzyl-2-oxo-2-[(pyridin-2-ylmethyl)-carbamoyl]-ethylcarbamoyl}-2-(1H-indol-3-yl)-ethylcarbamoyl]-ethyl}-carbamic acid benzyl ester] | 10 | 1090 | > 20000 | 589 | 13500 | 1160
COc1ccc(C[C@H](NC(=O)[C@H](C)NC(=O)CN2CCOc3ccccc32)C(=O)N[C@@H](Cc2ccccc2)C(=O)C(=O)NCc2ccccc2)cc1 [Example 35, (S)—N-Benzyl-3-[(S)-2-[(S)-2-(2-2,3-dihydro-benzo[1,4]oxazin-4-yl-acetylamino)-propionylamino]-3-(4-methoxy-phenyl)-propionylamino]-2-oxo-4-phenyl-butyramide] | 4 | 261 | > 20000 | 395 | 13400 | 615
CC(C)C[C@H](NC(=O)[C@H](C)NC(=O)OCc1ccccc1)C(=O)N[C@@H](Cc1ccccc1)C(=O)C(=O)NCc1ccccc1 [Example 36, {(S)-1-[(S)-1-((S)-1-Benzyl-2-benzylcarbamoyl-2-oxo-ethylcarbamoyl)-3-methyl-butylcarbamoyl]-ethyl}-carbamic acid benzyl ester] | 62 | 973 | > 20000 | 359 | > 20000 | 2800
CC(C)C[C@H](NC(=O)[C@H](C)NC(=O)c1ccnn1C)C(=O)N[C@@H](Cc1ccccc1)C(=O)C(=O)NCc1ccccc1 [Example 37, 2-Methyl-2H-pyrazole-3-carboxylic acid {(S)-1-[(S)-1-((S)-1-benzyl-2-benzylcarbamoyl-2-oxo-ethylcarbamoyl)-3-methyl-butylcarbamoyl]-ethyl}-amide] | 234 | 4440 | > 20000 | 1080 | > 20000 | 5100
C[C@H](NC(=O)OCc1ccccc1)C(=O)N[C@@H](Cc1c[nH]c2ccccc12)C(=O)N[C@@H](Cc1ccccc1)C(=O)C(=O)N(C)Cc1ccccc1 [Example 38, {(S)-1-[(S)-1-[(S)-1-Benzyl-2-(benzyl-methyl-carbamoyl)-2-oxo-ethylcarbamoyl]-2-(1H-indol-3-yl)-ethylcarbamoyl]-ethyl}-carbamic acid benzyl ester] | 1210 | 4110 | > 20000 | > 20000 | > 20000 | 10100
COc1ccc(C[C@H](NC(=O)[C@H](C)NS(=O)(=O)c2ccccc2)C(=O)N[C@@H](Cc2ccccc2)C(=O)C(=O)NCc2ccccc2)cc1 [Example 39, (S)-3-[(S)-2-((S)-2-Benzenesulfonylamino-propionylamino)-3-(4-methoxy-phenyl)-propionylamino]-N-benzyl-2-oxo-4-phenyl-butyramide] | 29 | 1380 | > 20000 | 605 | > 20000 | 2320
COc1ccc(C[C@H](NC(=O)[C@H](C)NS(=O)(=O)c2ccccc2C)C(=O)N[C@@H](Cc2ccccc2)C(=O)C(=O)NCc2ccccc2)cc1 [Example 40, (S)—N-Benzyl-3-{(S)-3-(4-methoxy-phenyl)-2-[(S)-2-(toluene-2-sulfonylamino)-propionylamino]-propionylamino}-2-oxo-4-phenyl-butyramide] | 46 | 1290 | > 20000 | 1140 | 14700 | 1830
COc1ccc(C[C@H](NC(=O)[C@H](C)NC(=O)CCc2ccnn2C)C(=O)N[C@@H](Cc2ccccc2)C(=O)C(=O)NCc2ccccc2)cc1 [Example 41, (S)—N-Benzyl-3-((S)-3-(4-methoxy-phenyl)-2-{(S)-2-[3-(2-methyl-2H-pyrazol-3-yl)-propionylamino-]propionylamino}-propionylamino)-2-oxo-4-phenyl-butyramide] | 26 | 385 | > 20000 | 697 | 18400 | 1500
C[C@H](NC(=O)C1Cc2ccccc2C1)C(=O)N[C@@H](CCc1ccccc1)C(=O)N[C@@H](Cc1ccccc1)C(=O)C(=O)NCc1ccccc1 [Example 42, Indan-2-carboxylic acid {(S)-1-[(S)-1-((S)-1-benzyl-2-benzylcarbamoyl-2-oxo-ethylcarbamoyl)-3-phenyl-propylcarbamoyl]-ethyl}-amide] | 4 | 14 | > 20000 | 968 | 18100 | 379
C[C@H](NC(=O)C1Cc2ccccc2C1)C(=O)N[C@@H](Cc1ccccc1)C(=O)N[C@@H](Cc1ccccc1)C(=O)C(=O)NCc1ccccc1 [Example 43, Indan-2-carboxylic acid {(S)-1-[(S)-1-((S)-1-benzyl-2-benzylcarbamoyl-2-oxo-ethylcarbamoyl)-2-phenyl-ethylcarbamoyl]-ethyl}-amide] | 3 | 192 | > 20000 | 257 | 18300 | 784
